Counter-ions that a name gives are not always drawn.
| Structure (SMILES) | melting point |
| --- | --- |
| Cc1cccc2c1cc(C(=O)NCc1ccc([N+](C)(C)C)cc1)n2Cc1cccc(C(=N)N)c1.O=C(O)C(F)(F)F.O=C([O-])C(F)(F)F [Example 35, [4-({[1-(3-Amidino-benzyl)-4-methyl-1H-indole-2-carbonyl]-amino}-methyl)-phenyl]-trimethyl-ammonium trifluoroacetate trifluoroacetic acid salt] | 81 °C (dec.) |
| C[N+](C)(C)c1ccc(CNC(=O)c2c(Cl)c3ccccc3n2Cc2cccc(C(=N)N)c2)cc1 (as salt: trifluoroacetic acid salt) [Example 106] | 57 °C |
| CC(=O)O.C[N+](C)(C)c1ccc(CNC(=O)c2cc3cc(S(C)(=O)=O)ccc3n2Cc2cccc(C(=N)N)c2)cc1.O=C([O-])C(F)(F)F | 70 °C (dec.) |
| COc1cccc2c1cc(C(=O)NCc1ccc(O)cc1)n2Cc1cccc(C(=N)N)c1.Cl | 202 °C (dec.) |
| COC(=O)c1cccc(CNC(=O)c2cc3c(O)cccc3n2Cc2cccc(C(=N)N)c2)c1 (as salt: trifluoroacetic acid salt) [Example 132] | 95 °C |
| Cc1cccc2c1cc(C(=O)NCc1ccc([N+](C)(C)Cc3ccccc3)cc1)n2Cc1cccc(C(=N)N)c1.O=C(O)C(F)(F)F.O=C([O-])C(F)(F)F | 113 °C (dec.) |
| C[N+](C)(C)c1ccc(CNC(=O)c2cc3cc(Cl)ccc3n2Cc2cccc(C(=N)N)c2)cc1.O=C(O)C(F)(F)F.O=C([O-])C(F)(F)F | 112 °C (dec.) |
| C#CC[N+](C)(C)c1ccc(CNC(=O)c2cc3cc(F)ccc3n2Cc2cccc(C(=N)N)c2)cc1.CC(=O)O.CC(=O)[O-] | 109 °C (dec.) |
| C=CC[N+](C)(C)c1ccc(CNC(=O)c2cc3cc(F)ccc3n2Cc2cccc(C(=N)N)c2)cc1.CC(=O)O.[Cl-] | 133 °C (dec.) |
| CC(=O)O.CC(=O)[O-].C[N+](C)(C)c1ccc(CNC(=O)c2cc3cc(Br)ccc3n2Cc2cccc(C(=N)N)c2)cc1 | 86 °C (dec.) |
| CN(C)c1ccc(CNC(=O)c2cc3ccccc3n2Cc2cccnc2)cc1 | 108 to 110 °C |
| CC(=O)O.C[C@@H](NC(=O)c1cc2cc(OCc3ccccc3)ccc2n1Cc1cccc(C(=N)N)c1)c1ccccc1 | 72 °C (dec.) |
| COc1cccc2c1cc(C(=O)NCCc1cc[n+](C)cc1)n2Cc1cccc(C(=N)N)c1.O=C(O)C(F)(F)F.O=C([O-])C(F)(F)F | 164 °C (dec.) |
| COc1cccc2c1cc(C(=O)NCCc1ccc(O)cc1)n2Cc1cccc(/C(N)=N/O)c1 [Example 51, 1-(3-Hydroxyamidino-benzyl)-4-methoxy-1H-indole-2-carboxylic acid 2-(4-hydroxy-phenyl)-ethyl amide] | 173 to 175 °C (dec.) |
| C[N+](C)(C)c1ccc(CNC(=O)c2cc3c(OCc4ccccc4)cccc3n2Cc2cccc(C(=N)N)c2)cc1.[I-] [Example 68, [4-({[1-(3-Amidino-benzyl)-4-benzyloxy-1H-indole-2-carbonyl]-amino}-methyl)-phenyl]-trimethyl-ammonium iodide hydroiodide] | 158 °C (dec.) |
| N=C(N)c1cccc(CNC(=O)c2cc3c(O)cccc3n2Cc2cccc(C(=N)N)c2)c1.O=C(O)C(F)(F)F.O=C(O)C(F)(F)F [Example 77, 1-(3-Amidino-benzyl)-4-hydroxy-1H-indole-2-carboxylic acid 3-amidino-benzylamide trifluoroacetic acid salt] | 128 to 131 °C |
| C[N+](C)(C)c1ccc(CNC(=O)c2cc3cc(N)ccc3n2Cc2cccc(C(=N)N)c2)cc1.O=C(O)C(F)(F)F.O=C(O)C(F)(F)F.O=C([O-])C(F)(F)F | 114 °C (dec.) |
| N/C(=N\O)c1cccc(COC(=O)c2cc3ccccc3n2Cc2cccc(/C(N)=N/O)c2)c1 [Example 53, 1-(3-Hydroxyamidino-benzyl)-1H-indole-2-carboxylic acid (3-hydroxyamidino-benzyl)ester] | 114 to 116 °C |
| CC(=O)O.CC(=O)O.Cc1cccc2c1cc(C(=O)OCc1cccc(C(=N)N)c1)n2Cc1cccc(C(=N)N)c1 | 53 °C (dec.) |
| CN(C)c1ccc(CNC(=O)c2cc3cc(F)ccc3n2Cc2cccc(C(=N)N)c2)cc1.O=C(O)C(F)(F)F.O=C(O)C(F)(F)F | 90 °C (dec.) |
| CC(=O)O.CC(=O)[O-].Cc1cccc2c1cc(C(=O)NCc1ccc([N+](C)(C)C)cc1)n2Cc1cccc(C(=N)N)c1 | 89 °C (dec.) |
| N=C(N)c1cccc(CNC(=O)c2c(Cl)c3ccccc3n2Cc2cccc(C(=N)N)c2)c1 (as salt: trifluoroacetic acid salt) [Example 115] | 227 °C |
| COc1cccc2c1cc(C(=O)NCCc1ccncc1)n2Cc1cccc(/C(N)=N/O)c1 [Example 49, 1-(3-Hydroxyamidino-benzyl)-4-methoxy-1H-indole-2-carboxylic acid 2-(4-pyridyl)-ethyl amide] | 220 to 222 °C |
| Cc1cc(CNC(=O)c2cc3c(O)cccc3n2Cc2cccc(C(=N)N)c2)cc(C(F)(F)F)c1 (as salt: trifluoroacetic acid salt) [Example 112] | 126 °C |
| C[N+](C)(Cc1ccccc1)c1ccc(CNC(=O)c2cc3cc(F)ccc3n2Cc2cccc(C(=N)N)c2)cc1.Cl.[Cl-] | 136 °C |
| CC(=O)O.CC(=O)[O-].C[N+](C)(C)c1ccc(CNC(=O)c2cc3c(Br)cccc3n2Cc2cccc(C(=N)N)c2)cc1 | 145 °C (dec.) |
| C[N+](C)(C)c1ccc(CNC(=O)c2cn(Cc3cccc(C(=N)N)c3)c3ccccc23)cc1.O=C(O)C(F)(F)F.O=C([O-])C(F)(F)F | 177 °C (dec.) |

| Structure (SMILES) | melting point |
| --- | --- |
| C[N+](C)(C)c1ccc(CNC(=O)c2cc3cc(F)ccc3n2Cc2cccc(C(=N)N)c2)cc1.O=C(O)C(F)(F)F.O=C([O-])C(F)(F)F | 120 to 124 °C |
| N=C(N)c1cccc(CNC(=O)c2cc3cc(OCc4ccccc4)ccc3n2Cc2cccc(C(=N)N)c2)c1 (as salt: hydroiodid) [Example 59, 1-(3-Amidino-benzyl)-5-benzyloxy-1H-indole-2-carboxylic acid 3-amidino-benzylamide dihydroiodide] | 138 °C (dec.) |
| N=C(N)c1cccc(COC(=O)c2cc3ccccc3n2Cc2cccc(C(=N)N)c2)c1.O=C(O)C(F)(F)F.O=C(O)C(F)(F)F | 258 °C |
| CN(C)c1ccc(CNC(=O)c2cn(Cc3cccc(C(=N)N)c3)c3ccccc23)cc1.O=C(O)C(F)(F)F.O=C(O)C(F)(F)F | 92 to 96 °C |
| N=C(N)c1cccc(CNC(=O)c2cc3cc(O)ccc3n2Cc2cccc(C(=N)N)c2)c1.O=C(O)C(F)(F)F.O=C(O)C(F)(F)F | 125 °C (dec.) |
| N=C(N)c1cccc(Cn2c(C(=O)NCc3ccc(Cl)cc3)cc3ccccc32)c1.O=C(O)C(F)(F)F | 230 °C (dec.) |
| CC(=O)O.CC(=O)[O-].COc1ccc2c(c1)cc(C(=O)NCc1ccc([N+](C)(C)C)cc1)n2Cc1cccc(C(=N)N)c1 | 94 °C (dec.) |
| C[N+](C)(C)c1ccc(CNC(=O)c2cc3cc([N+](=O)[O-])ccc3n2Cc2cccc(C(=N)N)c2)cc1.O=C(O)C(F)(F)F.O=C([O-])C(F)(F)F | 120 °C (dec.) |
| COc1cccc2c1cc(C(=O)NC(c1ccccc1)c1cc[n+](C)cc1)n2Cc1cccc(C(=N)N)c1.O=C(O)C(F)(F)F.O=C([O-])C(F)(F)F (racemic) [Example 24, (RS)-4-({[1-(3-Amidino-benzyl)-4-methoxy-1H-indole-2-carbonyl]-amino}-phenyl-methyl)-1-methyl-pyridinium trifluoroacetate trifluoroacetic acid salt] | 135 °C |
| N=C(N)c1cccc(Cn2c(C(N)=O)cc3ccccc32)c1.O=C(O)C(F)(F)F | 278 °C (dec.) |
| N=C(N)c1ccc(Cn2c(C(=O)NCc3ccc(Cl)cc3)cc3ccccc32)cc1.O=C(O)C(F)(F)F | 268 °C (dec.) |
| Cl.N=C(N)c1ccc(Cn2c(C(=O)NCc3ccccc3)cc3ccccc32)cc1 | 266 to 268 °C (dec.) |
| COc1cccc2c1cc(C(=O)NC(c1ccccc1)c1ccncc1)n2Cc1cccc(C(=N)N)c1.O=C(O)C(F)(F)F.O=C(O)C(F)(F)F (racemic) | 105 °C |
| CC(=O)O.CCOC(=O)c1cc2c(C)cccc2n1Cc1cccc(C(=N)N)c1 | 187 °C (dec.) |
| CC(=O)O.CC(=O)[O-].C[N+](C)(C)c1ccc(CNC(=O)c2cc3cc(F)ccc3n2Cc2cccc(C(=N)N)c2)cc1 | 172 °C (dec.) |
| N=C(N)c1cccc(CNC(=O)Cc2cn(Cc3cccc(C(=N)N)c3)c3ccccc23)c1.O=C(O)C(F)(F)F.O=C(O)C(F)(F)F | 196 °C (dec.) |
| CC(=O)O.CC(=O)O.N=C(N)c1cccc(COC(=O)c2cc3cc(OCc4ccccc4)ccc3n2Cc2cccc(C(=N)N)c2)c1 | 147 °C (dec.) |
| CC(=O)O.N=C(N)c1cccc(Cn2c(C(=O)NCc3ccccc3)cc3ccccc32)c1 | 266 to 268 °C (dec.) |
| COc1cccc2c1cc(C(=O)NCCc1ccncc1)n2Cc1cccc(/C(N)=N/O)c1.Cl.Cl | 215 to 217 °C |
| N=C(N)c1cccc(Cn2c(C(=O)NCc3cc(Cl)cc(Cl)c3)cc3c(O)cccc32)c1 (as salt: trifluoroacetic acid salt) [Example 120] | 117 °C |
| CC(=O)O.CC(=O)[O-].C[N+](C)(C)c1ccc(CNC(=O)c2cc3cc(F)ccc3n2Cc2cccc(C3=NCCN3)c2)cc1 | 51 °C (dec.) |
| Cc1cccc2c1cc(C(=O)NCc1ccc(N(C)C)cc1)n2Cc1cccc(C(=N)N)c1.O=C(O)C(F)(F)F.O=C(O)C(F)(F)F | 106 °C (dec.) |
| C[N+](C)(C)c1ccc(CNC(=O)c2cc3cc(O)ccc3n2Cc2cccc(C(=N)N)c2)cc1.O=C(O)C(F)(F)F.O=C([O-])C(F)(F)F | 78 °C (dec.) |
| COc1cccc2c1cc(C(=O)NCCc1ccc(O)cc1)n2Cc1cccc(C(=N)N)c1.O=C(O)C(F)(F)F | 140 to 142 °C |
| CN(C)c1ccc(CNC(=O)c2cc3cc(Cl)ccc3n2Cc2cccc(/C(N)=N/O)c2)cc1 [Example 52, 1-(3-Hydroxyamidino-benzyl)-5-chloro-1H-indole-2-carboxylic acid (4-dimethylamino)-benzyl amide] | 200 °C (dec.) |
| N=C(N)c1ccc(Cn2c(C(=O)NC(c3ccccc3)c3ccncc3)cc3ccccc32)cc1.O=C(O)C(F)(F)F.O=C(O)C(F)(F)F (racemic) | 150 °C |

Reference: US6337344B1, “Indole derivatives as inhibitors or factor Xa” (Aventis Pharma Deutschland GmbH, priority 1997, dated 2002)
